Results as given in ChEMBL document CHEMBL3832761, “MMV Pathogen Box Bioactivity Data” (2017).

Experiments:
[1] = test system: HepG2; test: HepG2 inhibition at 10 uM (%) Cytotoxicity; assay type: functional; conditions: Homo sapiens
[2] = test system: Plasmodium falciparum; test: Antimalarial activity: Asexual Blood Stage Plasmodium falciparum W2 IC50 (uM); assay type: functional, organism-based
[3] = test system: Plasmodium berghei; test: Antimalarial activity: Liver Stage Plasmodium berghei sporozoite Luciferase assay: inhibition at 10 uM (%); assay type: functional
[4] = test system: Plasmodium falciparum; test: Antimalarial activity: Gametocytes Plasmodium falciparum NF54 Gametocytes Stage V: inhibition at 10 uM (%); assay type: functional
[5] = test system: Plasmodium falciparum; test: Antimalarial activity: Asexual Blood Stage Plasmodium falciparum 3D7 IC50 (uM); assay type: functional, organism-based
[6] = test system: Plasmodium falciparum; test: Antimalarial activity: Asexual Blood Stage Plasmodium falciparum Dd2 IC50 (uM); assay type: functional, organism-based
[7] = test system: MRC5; test: MRC5 CC50 (uM) Cytotoxicity; assay type: functional; conditions: Homo sapiens
[8] = test system: HepG2; test: Cytotoxicity data HepG2 CC20 (uM); assay type: functional

IC50 [2] [nM] | IC50 [5] [nM] | IC50 [6] [nM] | Structure (SMILES) | inhibition at 10 µM [1] [%] | Inhibition [3] [%] | Inhibition [4] [%] | inhibition [3] | CC50 [7] [µM] | inhibition [4] | CC20 [8] [µM]
940 | 900 | 940 | CCn1cnc2c(Nc3cc(F)cc(F)c3)nc(C#N)nc21 | 5 | 0 | 3 | – | – | – | –
880 | 520 | 1320 | CC1CCCN(C(=O)C(C)Nc2cc(Cl)ccc2N2CCOCC2)C1 (stereo not drawn) | 13 | 46 | 9.53 | – | – | – | –
2380 | 1400 | – | Cc1cc(NCC(C)C)c2[nH]nc(-c3ccccc3)c2n1 | 9 | – | – | – | – | – | –
690 | 980 | 1360 | Cc1cc(NC(=O)c2ccc(S(=O)(=O)N(Cc3ccccc3)C(C)C)cc2)no1 | 13 | 72 | 12.9 | – | – | – | –
1560 | 620 | 970 | COc1cc2ncnc(NC3CCN(Cc4ccccc4)CC3)c2cc1OC | 36 | 46 | 3 | – | – | – | –
2450 | 610 | 1600 | c1ccc2c(c1)CN(CC1CC1)CC1(CCN(Cc3c[nH]c4cnccc34)CC1)O2 | 35 | 89 | 8.4 | – | – | – | –
– | 100 | – | Cc1ccc(-c2cc(C(=O)Nc3cccnc3)c3cc(Br)ccc3n2)cc1 | – | – | – | Series known to be active | 20 | Series known to be active | –
4470 | 1200 | 3050 | COc1ccc(CCN2CCC(NCc3cccc(N(C)C)c3)CC2)cc1 | 6 | 67 | 4.11 | – | – | – | –
160 | 300 | 210 | Cc1cc(Cl)c(S(=O)(=O)N2CCCC2)cc1OCC(=O)NC1CCCCC1 | 32 | 81 | 0 | – | – | – | –
1100 | 1270 | 2720 | CCOc1ccccc1C(=O)Nc1cccc(-c2nc3ncccn3c2C)c1 | 4 | 94 | 42.5 | – | – | – | –
4000 | 790 | 1310 | Cc1ccc2[nH]c3c(NCCN(C)C)ncnc3c2c1 | 4 | 0 | 21 | – | – | – | –
2090 | 1970 | 1990 | CCc1cc(=O)n(C)c(SC(C)C(=O)Nc2ccc(F)cc2)n1 (stereo not drawn) | 25 | 47 | 0 | – | – | – | –
– | > 2000 | 2000 | O=C(C(Cc1c[nH]c2ccccc12)NS(=O)(=O)c1ccc(Cl)cc1)N1CCCCC1 (stereo not drawn) | 9 | 0 | 23 | – | – | – | 21.9
